Patent US6761884B1, “Vectors including foreign genes and negative selective markers” (The United States of America as represented by the …, priority 1991, dated 2004)

How the values were obtained:
[1] = tested on: untransduced WP4 tumor cells; experiment: Subcutaneous tumors from untransduced WP4 cells in mice, ganciclovir treatment; assay type: in vivo, C57BL/6 or BNX mice; settings: in 40-45 days, with or without ganciclovir administration (125-150 mg/kg i.p. twice daily for 5 days)
Experimental: (§1) WP4 tumor cells form tumors in C57BL/6 or BNX mice when injected subcutaneously. The number of cells required for tumor formation will vary depending of the strain of mouse used. C57BL/6 mice require 5×10^6-1×10^7 cells for tumor formation in 10-14 days. BNX mice require 1-5×10^4 cells for tumor formation in 10-14 days. Tumor cells are suspended in PBS and injected subcutaneously into the hind flank in a 0.5 ml volume. Five to ten days after tumor inoculation, ganciclovir is administered intraperitoneally twice daily for 5 days. A 2-5 mg/ml solution of ganciclovir prepared in serum-free medium (RPMI 1640, DMEM, or other) is used to achieve a dose of 125-150 mg/kg. Animals are monitored and tumor measurements made twice weekly.
(§2) At the time of ganciclovir administration, tumors are palpable, but unmeasurable. Tumors arising from untransduced WP4 cells reach a size of 2.0-2.5 cm^3 in 40-45 days with or without ganciclovir administration. Tumor cells containing the HSV-TK gene initially form palpable tumors then regress completely and become undetectable within 10-20 days after the start of ganciclovir treatment. Complete, long term tumor ablation is observed in 60-80% of mice having received selected cells plus ganciclovir therapy.

untransduced WP4 cells = experiment: Ganciclovir killing of untransduced WP4 cells, methylene blue staining; assay type: cell-based, murine; settings: 24-well plate, ganciclovir 0.01-100 uM, stained at 5 to 7 days
Experimental: This example employs a clone (WP4) (Asher et al., J. Inmunol, Vol. 146, pg. 3227 (1991)) of a murine tumor cell line MCA205 (Wexler et al., J. Natl. Canc. Inst., Vol. 63, pg. 1393 (1979)) for assessing the utility of the HSV-TK gene in a “suicide” system.
Transduced “selected” cells are then plated in 24-well tissue culture plate at 1-2.5×10^4 cells per well. After 24 hrs. of culture, ganciclovir is added in concentrations ranging from 0.01-100 uM, the cells are monitored for growth and all wells are stained in methylene blue when the control wells (no ganciclovir added) are confluent (at 5 to 7 days). Complete killing of transduced selected cells is observed at concentrations from 0.1 to 1.0 uM of ganciclovir, while untransduced cells are killed at concentrations of 100 uM or greater.

[2] = tested on: WP4 tumor cells containing the HSV-TK gene; experiment: Subcutaneous tumors from WP4 cells containing the HSV-TK gene in mice, ganciclovir treatment; assay type: in vivo, C57BL/6 or BNX mice
Experimental: as §1, §2

For `Nc1nc(O)c2ncn(COC(CO)CO)c2n1` [ganciclovir], the “Tumor size reached by tumors arising from untransduced WP4 cells” value [1] was 2.0-2.5 cm^3, the “Concentration at which untransduced cells are killed” value (untransduced WP4 cells) was no less than 100 µM and the “Time after start of ganciclovir treatment by which tumors regress completely and become undetectable” value ([2]; 125-150 mg/kg intraperitoneally twice daily for 5 days, started 5-10 days after tumor inoculation) was 10 to 20 days. For the same compound, the “Mice with complete, long term tumor ablation” value ([2]; mice having received selected cells plus ganciclovir therapy, 125-150 mg/kg i.p. twice daily for 5 days) was 60-80%.
